Results as given in US3950418A, “Vitamin A acid amides” (Hoffmann-La Roche Inc., priority 1970, dated 1976).

Columns and labels:
Type in all cases: in vivo
[1] = Acute toxicity, testing in the mouse; conditions: in vivo, in rape oil; for LD50 at 240 h: 10 days
Text: (§1) Toxicity tests carried out in mice and rats gave the following results for acute toxicity:
(§2) 1. Vitamin A acid ethyl amide in rape oil (per os and intraperitoneal administration)
(§3) 2. Vitamin A acid ethanol amide in rape oil (intraperitoneal administration)
(§4) 3. Vitamin A acid diethyl amide, vitamin A acid n-butyl amide, vitamin A acid phenyl amide, vitamin A acid isopropyl amide, or vitamin A acid methyl amide in rape oil (intraperitoneal administration)

[2] = system: mouse; experiment: Acute toxicity, testing in the mouse; conditions: in rape oil
Text: as §1, §2, §3, §4

[3] = Acute toxicity, testing in the rat; conditions: in vivo, in rape oil, per os and intraperitoneal administration
Text: as §1
(§5) Vitamin A acid ethyl amide in rape oil (per os and intraperitoneal administration)

[4] = system: rat; experiment: Acute toxicity, testing in the rat; conditions: in rape oil, per os and intraperitoneal administration
Text: as §1, §5

[5] = ip, intraperitoneal administration
[6] = intraperitoneal administration, 24 hrs.
[7] = intraperitoneal administration, 10 days
[8] = per os and intraperitoneal administration
[9] = per os and intraperitoneal administration, 20 days
[10] = per os and intraperitoneal administration, 24 hrs.
[11] = per os and intraperitoneal administration, 10 days

CC1=C(/C=C/C(C)=C/C=C/C(C)=C/C(=O)NC(C)C)C(C)(C)CCC1 [vitamin A acid isopropyl amide]
LD50 at 24 h [1, 5]: > 4000 mg/kg | LD50 at 240 h [1, 5]: > 4000 mg/kg | LD10 [2, 6]: > 4000 mg/kg | LD90 [2, 6]: > 4000 mg/kg | LD10 [2, 7]: > 4000 mg/kg | LD90 [2, 7]: > 4000 mg/kg

CCNC(=O)/C=C(C)/C=C/C=C(C)/C=C/C1=C(C)CCCC1(C)C [Vitamin A acid ethyl amide, vitamin A acid monoethyl amide]
LD50 at 24 h ([3]; 24 hrs.): > 4000 mg/kg | LD50 at 240 h ([3]; 10 days): > 4000 mg/kg | LD10 ([4]; 24 hrs.): > 4000 mg/kg | LD90 ([4]; 24 hrs.): > 4000 mg/kg | LD10 ([4]; 10 days): > 4000 mg/kg | LD90 ([4]; 10 days): > 4000 mg/kg | LD50 at 24 h [1, 8]: > 4000 mg/kg | LD50 at 240 h [1, 8]: > 4000 mg/kg | LD50 at 480 h [1, 9]: > 4000 mg/kg | LD10 [2, 10]: > 4000 mg/kg | LD90 [2, 10]: > 4000 mg/kg | LD10 [2, 11]: > 4000 mg/kg | LD90 [2, 11]: > 4000 mg/kg | LD10 [2, 9]: > 4000 mg/kg | LD90 [2, 9]: > 4000 mg/kg

CC1=C(/C=C/C(C)=C/C=C/C(C)=C/C(=O)NCCO)C(C)(C)CCC1 [Vitamin A acid ethanol amide, vitamin A acid ethanol amide]
LD50 at 24 h [1, 5]: > 4000 mg/kg | LD50 at 240 h [1, 5]: 1000 mg/kg | LD10 [2, 6]: > 4000 mg/kg | LD90 [2, 6]: > 4000 mg/kg | LD10 [2, 7]: 710 mg/kg | LD90 [2, 7]: 1400 mg/kg

CCN(CC)C(=O)/C=C(C)/C=C/C=C(C)/C=C/C1=C(C)CCCC1(C)C [Vitamin A acid diethyl amide, vitamin A acid diethyl amide]
LD50 at 24 h [1, 5]: > 4000 mg/kg | LD50 at 240 h [1, 5]: > 4000 mg/kg | LD10 [2, 6]: > 4000 mg/kg | LD90 [2, 6]: > 4000 mg/kg | LD10 [2, 7]: > 4000 mg/kg | LD90 [2, 7]: > 4000 mg/kg

CCCCNC(=O)/C=C(C)/C=C/C=C(C)/C=C/C1=C(C)CCCC1(C)C [vitamin A acid n-butyl amide]
LD50 at 24 h [1, 5]: > 4000 mg/kg | LD50 at 240 h [1, 5]: > 4000 mg/kg | LD10 [2, 6]: > 4000 mg/kg | LD90 [2, 6]: > 4000 mg/kg | LD10 [2, 7]: > 4000 mg/kg | LD90 [2, 7]: > 4000 mg/kg

CNC(=O)/C=C(C)/C=C/C=C(C)/C=C/C1=C(C)CCCC1(C)C [vitamin A acid methyl amide]
LD50 at 24 h [1, 5]: > 4000 mg/kg | LD50 at 240 h [1, 5]: > 4000 mg/kg | LD10 [2, 6]: > 4000 mg/kg | LD90 [2, 6]: > 4000 mg/kg | LD10 [2, 7]: > 4000 mg/kg | LD90 [2, 7]: > 4000 mg/kg

CC1=C(/C=C/C(C)=C/C=C/C(C)=C/C(=O)Nc2ccccc2)C(C)(C)CCC1 [vitamin A acid phenyl amide]
LD50 at 24 h [1, 5]: > 4000 mg/kg | LD50 at 240 h [1, 5]: > 4000 mg/kg | LD10 [2, 6]: > 4000 mg/kg | LD90 [2, 6]: > 4000 mg/kg | LD10 [2, 7]: > 4000 mg/kg | LD90 [2, 7]: > 4000 mg/kg
